Literature values, collected in US20040204492A1, “Topical composition and method for treating seborrheic dermatitis” (Healthpoint, Ltd., priority 2003, published 2004).

Test system: sulfonamide sensitive gram-positive and gram-negative microorganisms
Conditions: microorganisms commonly isolated from secondary cutaneous infections

SMILES: CC(=O)NS(=O)(=O)c1ccc(N)cc1.O.[Na] [Sulfacetamide sodium, Acetamide N-[(4-aminophenyl)sulfonyl]-, monosodium salt, monohydrate]
- bacteriostatic effect: exerts a bacteriostatic effect
